Experimental findings from patent publication US20130280741A1, “METHOD AND SYSTEM OF DETECTING DIOXIN-LIKE COMPOUNDS” (priority 2012, published 2013) are described below.

One test concerns the target T1, AHR-RL and ARNT-YFP (Homo sapiens, UniProt P35869).
T1 construct: expressed in transfected cells
The experiment in a line: BRET assay in AAPA cells. It is filed as cell-based. As to the method:
(§1) Tetracycline-regulated expression cells (T-REx™ cells) (Invitrogen, Carlsbad, Calif., USA) were transfected with AHR-RL, AIP-HIS and P23-HIS by lipofectamin 2000™ transfection reagent (Invitrogen, Carlsbad, Calif., USA) according to the manufacturer's instructions. Transfected cells were cultured in DMEM growth medium (Gibco, USA) supplemented with 10% fetal bovine serum (FBS), (Gibco, USA), 5 μg/ml Blasticidin, 250 μg/ml Zeocin and 500 μg/ml G418. The optimal cell lines were then transfected with ARNT-YFP or HSP90-YFP and selected with 200 μg/ml Hygromycin to obtain a stable cell line transfected with ARNT-YFP (called as “AAPA cells”) and obtain a stable cell line transfected with HSP90-YFP (called as “AAPH cells”).
For the inducible protein expression and AHR complex formation, the AAPA cells, which were stably co-transfected with AHR-RL, AIP-HIS, P23-HIS and ARNT-YFP, were prepared following the method as described in Example 2 and then were treated with 1 μg/ml tetracycline for 48 hours. Then, the treated cells were washed by phosphate-buffered saline (PBS) twice.
For dioxin detection, different concentrations of 3-methylcholanthrene (3MC) (Boehringer Mannheim, Mannheim, Germany) were mixed with the cells and cultured in a 96-well white polystyrene plate (Corning, USA) at 37° C. for 1 hour. The BRET signals were determined by addition of coelenterazine, a substrate of Renilla Luciferase, to a final concentration of […].
(In general: In BRET a luciferase serves as donor, and the signal depends on an acceptor being close.)

Another test concerns the target T2, AHR-RL and HSP90-YFP (Homo sapiens, UniProt P35869).
T2 construct: expressed in transfected cells
The test can be described thus: BRET assay in AAPH cells. It is filed as cell-based. Conditions: different concentrations, 37° C., dose-dependent (FIG. 2C). As to the method:
as §1
On the other hand, the AAPH cells, which were stably co-transfected with AHR-RL, AIP-HIS, P23-HIS and HSP-90YFP, were prepared and then mixed with different concentrations of 3MC and cultured in a 96-well white polystyrene plate (Corning, USA) at 37° C.

For the next test, the target named is T3, AHR-RL (Homo sapiens, UniProt P35869).
T3 construct: expressed in transfected cells; host or cells: sonicated, cleared lysate of tetracycline-induced AAPA cells (T-REx cells, Invitrogen)
T3 sequence (P35869 11-848): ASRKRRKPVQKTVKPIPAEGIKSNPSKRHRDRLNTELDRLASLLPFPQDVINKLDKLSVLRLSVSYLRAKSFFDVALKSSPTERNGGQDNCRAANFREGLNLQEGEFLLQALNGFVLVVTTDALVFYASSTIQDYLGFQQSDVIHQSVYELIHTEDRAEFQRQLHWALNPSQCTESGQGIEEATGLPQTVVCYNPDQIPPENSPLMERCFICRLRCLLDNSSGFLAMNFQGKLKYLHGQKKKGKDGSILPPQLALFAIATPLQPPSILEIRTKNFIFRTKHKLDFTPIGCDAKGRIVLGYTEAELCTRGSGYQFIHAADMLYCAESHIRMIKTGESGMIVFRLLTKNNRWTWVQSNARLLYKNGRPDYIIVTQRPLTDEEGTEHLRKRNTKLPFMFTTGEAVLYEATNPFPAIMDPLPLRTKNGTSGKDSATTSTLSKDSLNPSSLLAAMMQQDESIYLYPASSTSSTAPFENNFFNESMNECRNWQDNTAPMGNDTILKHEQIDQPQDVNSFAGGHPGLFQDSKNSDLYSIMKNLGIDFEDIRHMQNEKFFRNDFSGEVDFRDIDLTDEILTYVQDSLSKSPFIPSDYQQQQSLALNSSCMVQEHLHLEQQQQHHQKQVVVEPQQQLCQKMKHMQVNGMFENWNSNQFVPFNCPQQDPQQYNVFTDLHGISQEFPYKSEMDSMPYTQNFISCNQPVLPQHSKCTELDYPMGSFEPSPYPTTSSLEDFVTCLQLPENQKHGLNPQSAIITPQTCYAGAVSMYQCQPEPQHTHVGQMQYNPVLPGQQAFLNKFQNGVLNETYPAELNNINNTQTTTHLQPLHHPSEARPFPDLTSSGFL
T3 sequence (P08238 whole entry partner): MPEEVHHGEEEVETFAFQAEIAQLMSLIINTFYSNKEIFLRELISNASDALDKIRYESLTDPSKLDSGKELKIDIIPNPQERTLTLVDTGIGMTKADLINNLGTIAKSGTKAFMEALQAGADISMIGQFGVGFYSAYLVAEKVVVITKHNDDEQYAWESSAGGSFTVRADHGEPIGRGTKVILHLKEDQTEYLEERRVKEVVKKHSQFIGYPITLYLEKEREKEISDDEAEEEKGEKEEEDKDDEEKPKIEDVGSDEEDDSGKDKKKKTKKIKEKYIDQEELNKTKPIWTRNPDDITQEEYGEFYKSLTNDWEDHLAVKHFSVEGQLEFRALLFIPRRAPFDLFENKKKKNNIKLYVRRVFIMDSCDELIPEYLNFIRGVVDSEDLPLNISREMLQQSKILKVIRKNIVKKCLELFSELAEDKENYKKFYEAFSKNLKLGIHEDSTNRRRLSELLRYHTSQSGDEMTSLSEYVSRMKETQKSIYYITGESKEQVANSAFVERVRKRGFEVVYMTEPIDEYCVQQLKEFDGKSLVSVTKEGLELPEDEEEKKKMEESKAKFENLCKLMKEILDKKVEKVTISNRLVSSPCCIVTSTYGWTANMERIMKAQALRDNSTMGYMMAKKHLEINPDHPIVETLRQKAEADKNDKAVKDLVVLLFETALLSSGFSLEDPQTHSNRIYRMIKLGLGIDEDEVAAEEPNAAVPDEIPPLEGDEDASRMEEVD
T3 sequence (O00170 whole entry partner): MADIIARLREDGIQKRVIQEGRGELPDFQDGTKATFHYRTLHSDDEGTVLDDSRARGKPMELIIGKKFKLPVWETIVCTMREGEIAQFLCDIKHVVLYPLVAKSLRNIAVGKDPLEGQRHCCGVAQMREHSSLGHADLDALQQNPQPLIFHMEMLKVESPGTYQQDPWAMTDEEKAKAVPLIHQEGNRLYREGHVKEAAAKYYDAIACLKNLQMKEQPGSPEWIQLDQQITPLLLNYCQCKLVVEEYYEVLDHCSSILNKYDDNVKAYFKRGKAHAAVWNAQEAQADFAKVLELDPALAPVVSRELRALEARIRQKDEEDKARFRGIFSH
T3 sequence (Q15185 whole entry partner): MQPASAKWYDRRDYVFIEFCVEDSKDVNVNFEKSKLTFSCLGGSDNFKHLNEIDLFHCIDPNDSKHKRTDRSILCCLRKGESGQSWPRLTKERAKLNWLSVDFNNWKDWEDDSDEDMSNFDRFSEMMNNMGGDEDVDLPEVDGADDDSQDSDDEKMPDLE
The test can be described thus: Renilla luciferase signal of AHR-RL in cell-free AAPA whole cell lysate. Conditions: for detection limits / Renilla luciferase signals in the cell-free system: AAPA cell free lysate, 37° C.; for Renilla luciferase signals in the cell-free system: dose-dependent (FIGS. 4 and 5); for lowest concentration at which AHR-RL signal degradation can be detected: cell-free system. It is filed as biochemical. As to the method:
5×10^6 AAPA cells obtained in Example 4 were cultured in a 15 cm dish containing 25 ml DMEM medium supplemented with 10% FBS and 3.5 μg/ml tetracycline for 24 hrs. The cells were harvested and re-suspended in 10 ml cold PBS. The cells were lysed by sonication on ice using sonicator (Branson, Danbury Conn., USA) at amplitude of 10% for 30 cycles of 5 sec on and 15 sec off. The cellular debris was removed by centrifugation at 1,000 g for 10 min. For detection, 90 μl cell free lysates and different concentrations of 3MC were mixed and cultured in 96 well white polystyrene plate (Corning, USA) at room temperature. Renilla luciferase signals were determined by addition of coelenterazine to a final concentration of 0.35 μM. The result for detecting TCDD was shown in FIG. 3 (y=136.97x+2251.9, R^2=0.9794).
In addition, the cell free lysates and different concentrations of 3MC and TCDD were mixed and cultured in 96 well white polystyrene plate (Costar) at 37° C., respectively.

SMILES strings stand for the structures.

T1 sequence (P35869 11-848): as the sequence (P35869 11-848) above
T1 sequence (P08238 whole entry partner): as the sequence (P08238 whole entry partner) above
T1 sequence (O00170 whole entry partner): as the sequence (O00170 whole entry partner) above
T1 sequence (Q15185 whole entry partner): as the sequence (Q15185 whole entry partner) above
T2 sequence (P35869 11-848): as the sequence (P35869 11-848) above
T2 sequence (P08238 whole entry partner): as the sequence (P08238 whole entry partner) above
T2 sequence (O00170 whole entry partner): as the sequence (O00170 whole entry partner) above
T2 sequence (Q15185 whole entry partner): as the sequence (Q15185 whole entry partner) above

Turning to `Cc1ccc2cc3c(ccc4ccccc43)c3c2c1CC3` [3MC, 3-methylcholanthrene], the BRET signals entry on AHR-RL and ARNT-YFP (AAPA cells, different concentrations, 37° C. for 1 hour, dose-dependent (FIG. 2B)) was “increased”. Further, the “concentration at which BRET signal induction was first observed” value at AHR-RL and ARNT-YFP came to 1 pM. Moreover, at AHR-RL and HSP90-YFP, the BRET signals entry is reported as “suppressed”. In addition, on AHR-RL, the detection limits is listed as 10^−16 M, the “Renilla luciferase signals in the cell-free system” value was “increased” and the “lowest concentration at which AHR-RL signal degradation can be detected” value came out at 10 aM.
On to `Clc1cc2c(cc1Cl)Oc1cc(Cl)c(Cl)cc1O2` [TCDD, 2,3,7,8-tetrachlorodibenzo-p-dioxin], for which the “concentration at which BRET signal induction was first observed” value at AHR-RL and ARNT-YFP turned out to be 1 pM. Further, on AHR-RL, the detection limits is listed as 10^−16 M, the “Renilla luciferase signals in the cell-free system” value was “increased” and the “lowest concentration at which AHR-RL signal degradation can be detected” value stood at 10 aM.
